According to publication PMC5062114, “Dual-targeting anti-angiogenic cyclic peptides as potential drug leads for cancer therapy” (Scientific Reports, 2016):
Read-outs that look alike come from different tables or passages of the source. Bridge positions count the residues as written; N and C are the ends. Square brackets hold non-standard residues; d marks the D form. Peptide text beside a SMILES is read from it.

Experiments:
Assay in all cases: cells
HT-29 = system: HT-29
Description: (§1) HUVECs (human umbilical vein endothelial cells) were cultured in EGM™-2 BulletKit™ supplemented with SingleQuots™ (supplements: growth factors, cytokines, antibiotics; Lonza) and 10% FBS (catalog no. FFBS-500; Scientifix). Both HT-29 and MCF-7 cells were cultured in 10% FBS/DMEM (Dulbecco’s Modified Eagle Medium) with 1% penicillin–streptomycin (5000 U/mL; Life Technologies), whereas PC3 cells (prostate cancer cells) were cultured in 10% FBS/RPMI (Roswell Park Memorial Institute) 1640 with 1% penicillin–streptomycin (5000 U/mL; Life Technologies). All cells were maintained at 37 °C in 5% CO2.
(§2) Cell cytotoxicity and proliferation assays were performed using similar methods to those described by Chan et al.[45]. All cells were maintained using the media conditions described above, and passages two to ten were used for all cell lines. For all cell lines, 5.0 × 10^3 cells/well (100 μL) and 1.5 × 10^3 cells/well (100 μL) were used for cell cytotoxicity and cell proliferation assays, respectively. All peptides (10 μL, at final concentrations ranging from 0.05–100 μM) and drugs, which included cilengitide, octreotide and sunitinib (at final concentrations ranging from 0.00001–100 μM), were used in both assays. Triton X-100 (0.1% (v/v); 10 μL) was used as a positive control. Cells were treated with fresh media the day after plating, before the addition of peptides, followed by a subsequent 2-h and 48-h incubation for cell cytotoxicity and cell proliferation, respectively. After different incubation periods, 3-(4, 5-dimethylthiazolyl-2)-2,5-diphenyltetrazolium bromide (MTT) (10 μL; 5 mg/mL in PBS) was added, and cells were incubated for a further 4 h. The supernatant was then removed and 100 μL DMSO added to solubilize formazan salts. Experiments were performed in triplicate. Cell numbers were recorded at 600 nm. All data represent average mean ± SD.

PC3 = system: PC3
Description: as §1, §2

MCF-7 = system: MCF-7
Description: as §1, §2

HUVEC = system: HUVEC
Description: as §1, §2

[1] = read-out: IC50 ± S.D., 48 hours, HT-29, cell proliferation inhibition, MTT, 48-h incubation, 1.5 × 10^3 cells/well, triplicate, mean ± SD
[2] = read-out: IC50 ± S.D., 48 hours, PC3, cell proliferation inhibition, MTT, 48-h incubation, 1.5 × 10^3 cells/well, triplicate, mean ± SD
[3] = read-out: IC50 ± S.D., 48 hours, MCF-7, cell proliferation inhibition, MTT, 48-h incubation, 1.5 × 10^3 cells/well, triplicate, mean ± SD
[4] = read-out: IC50 ± S.D., 48 hours, HUVEC, cell proliferation inhibition, MTT, 48-h incubation, 1.5 × 10^3 cells/well, triplicate, mean ± SD

IC50 (HT-29; 4 h) [µM]	IC50 (PC3; 4 h) [µM]	IC50 (MCF-7; 4 h) [µM]	Structure (SMILES)	IC50 (HT-29; [1]) [µM]	IC50 (PC3; [2]) [µM]	IC50 (MCF-7; [3]) [µM]	IC50 (HUVEC; [4]) [µM]	IC50 (HUVEC; 4 h) [µM]
			CC[C@H](C)[C@@H]1NC(=O)[C@@H]2CSSC[C@@H]3NC(=O)[C@H](C(C)C)NC(=O)CNC(=O)CNC(=O)[C@H](CC(=O)O)NC(=O)[C@H](CO)NC(=O)CNC(=O)[C@H](CO)NC(=O)CNC(=O)[C@@H]4CSSC[C@H](NC(=O)[C@H](CC(=O)O)NC(=O)[C@H](CO)NC(=O)[C@H](CC(=O)O)NC(=O)[C@H](CCCNC(=N)N)NC(=O)[C@H](CCCNC(=N)N)NC(=O)[C@H](CSSC[C@H](NC1=O)C(=O)N[C@@H](CCCNC(=N)N)C(=O)N[C@@H](Cc1ccc(O)cc1)C(=O)N[C@H](Cc1c[nH]c5ccccc15)C(=O)N[C@@H](CCCCN)C(=O)N[C@@H](C(C)C)C(=O)N4)NC(=O)CNC(=O)[C@H](CCCNC(=N)N)NC(=O)[C@H](CCCNC(=N)N)NC(=O)[C@H](CCCNC(=N)N)NC(=O)[C@H](CCCCN)NC(=O)[C@H](CCCNC(=N)N)NC(=O)[C@H](CCCNC(=N)N)NC(=O)CNC3=O)C(=O)N1CCC[C@H]1C(=O)NCC(=O)N[C@@H](C)C(=O)N2 [MCoAA-01] (cyclo(ACICRY[dW]KVCGSGSDGGVCGRRKRRRGCRRDSDCPG); disulfide 2-19, 4-28, 10-34)	40.12 ± 0.13	> 100	45.01 ± 0.16	10.83 ± 0.09	
			CC[C@H](C)[C@@H]1NC(=O)[C@@H]2CSSC[C@@H]3NC(=O)CNC(=O)[C@H](CCCNC(=N)N)NC(=O)[C@H](CCCNC(=N)N)NC(=O)[C@H](CCCNC(=N)N)NC(=O)[C@H](CCCCN)NC(=O)[C@H](CCCNC(=N)N)NC(=O)[C@H](CCCNC(=N)N)NC(=O)CNC(=O)[C@@H]4CSSC[C@H](NC(=O)[C@H](CC(=O)O)NC(=O)[C@H](CO)NC(=O)[C@H](CC(=O)O)NC(=O)[C@H](CCCNC(=N)N)NC(=O)[C@H](CCCNC(=N)N)NC(=O)[C@H](CSSC[C@H](NC1=O)C(=O)N[C@@H](CCCNC(=N)N)C(=O)NCC(=O)N[C@@H](CC(N)=O)C(=O)NCC(=O)N[C@@H](Cc1ccc(O)cc1)C(=O)N4)NC(=O)[C@H](CCCCN)NC(=O)[C@H](CCCCN)NC(=O)[C@H](CC(C)C)NC(=O)[C@H]([C@@H](C)CC)NC(=O)[C@H](CCCCN)NC(=O)[C@@H]1CCCN1C3=O)C(=O)N1CCC[C@H]1C(=O)NCC(=O)N[C@@H](C)C(=O)N2 [MCo-polyR-L6] (cyclo(ACICRGNGYCGRRKRRRGCPKILKKCRRDSDCPG); disulfide 2-19, 4-26, 10-32)	52.89 ± 0.11	> 100	> 100	34.95 ± 0.03	
			CC[C@H](C)[C@@H]1NC(=O)[C@@H]2CSSC[C@@H]3NC(=O)[C@H](C(C)C)NC(=O)CNC(=O)CNC(=O)[C@H](CC(=O)O)NC(=O)[C@H](CO)NC(=O)CNC(=O)[C@H](CO)NC(=O)CNC(=O)[C@@H]4CSSC[C@H](NC(=O)[C@H](CC(=O)O)NC(=O)[C@H](CO)NC(=O)[C@H](CC(=O)O)NC(=O)[C@H](CCCNC(=N)N)NC(=O)[C@H](CCCNC(=N)N)NC(=O)[C@H](CSSC[C@H](NC1=O)C(=O)N[C@@H](CCCNC(=N)N)C(=O)NCC(=O)N[C@@H](CC(N)=O)C(=O)NCC(=O)N[C@@H](Cc1ccc(O)cc1)C(=O)N4)NC(=O)[C@H](CCCNC(=N)N)NC(=O)[C@H](CCCNC(=N)N)NC(=O)[C@H](CCCNC(=N)N)NC(=O)[C@H](CCCCN)NC(=O)[C@H](CCCNC(=N)N)NC(=O)[C@H](CCCNC(=N)N)NC3=O)C(=O)N1CCC[C@H]1C(=O)NCC(=O)N[C@@H](C)C(=O)N2 [MCo-polyR-L1] (cyclo(ACICRGNGYCGSGSDGGVCRRKRRRCRRDSDCPG); disulfide 2-19, 4-26, 10-32)	> 100	> 100	> 100	> 100	
			CC[C@H](C)[C@@H]1NC(=O)[C@@H]2CCCN2C(=O)[C@@H]2CCCN2C(=O)[C@H]([C@@H](C)CC)NC(=O)[C@H](CO)NC(=O)[C@H](CCCCN)NC(=O)[C@H]([C@@H](C)O)NC(=O)[C@@H]2CSSC[C@H](NC1=O)C(=O)N[C@@H](CCCNC(=N)N)C(=O)N[C@@H](CCCNC(=N)N)C(=O)N[C@@H](CCCCN)C(=O)N[C@@H](CCCNC(=N)N)C(=O)N[C@@H](CCCNC(=N)N)C(=O)N[C@@H](CCCNC(=N)N)C(=O)N2 [SFTI-polyR-L2] (cyclo(CRRKRRRCTKSIPPI); disulfide 1-8)	> 100	> 100	41.84 ± 0.07	> 100	
> 100	> 100	> 100	C[C@@H](O)[C@H](NC(=O)[C@H](CCCCN)NC(=O)[C@@H](Cc1c[nH]c2ccccc12)NC(=O)[C@H](Cc1ccccc1)NC(=O)[C@@H](N)CCCNC(=N)N)C(=O)N[C@@H](Cc1c[nH]c2ccccc12)C(=O)O [SST-02, reference compound] (H-RF[dW]KTW-OH)					> 100
			CC[C@H](C)[C@@H]1NC(=O)[C@@H]2CSSC[C@@H]3NC(=O)[C@H](Cc4c[nH]c5ccccc45)NC(=O)[C@H]([C@@H](C)O)NC(=O)[C@H](CCCCN)NC(=O)[C@@H](Cc4c[nH]c5ccccc45)NC(=O)[C@H](Cc4ccccc4)NC(=O)[C@H](CCCNC(=N)N)NC(=O)[C@@H]4CSSC[C@H](NC(=O)[C@H](CC(=O)O)NC(=O)[C@H](CO)NC(=O)[C@H](CC(=O)O)NC(=O)[C@H](CCCNC(=N)N)NC(=O)[C@H](CCCNC(=N)N)NC(=O)[C@H](CSSC[C@H](NC1=O)C(=O)N[C@@H](CCCNC(=N)N)C(=O)NCC(=O)N[C@@H](CC(N)=O)C(=O)NCC(=O)N[C@@H](Cc1ccc(O)cc1)C(=O)N4)NC(=O)[C@H](CCCCN)NC(=O)[C@H](CCCCN)NC(=O)[C@H](CC(C)C)NC(=O)[C@H]([C@@H](C)CC)NC(=O)[C@H](CCCCN)NC(=O)[C@@H]1CCCN1C3=O)C(=O)N1CCC[C@H]1C(=O)NCC(=O)N[C@@H](C)C(=O)N2 [MCo-SST-02] (cyclo(ACICRGNGYCRF[dW]KTWCPKILKKCRRDSDCPG); disulfide 2-17, 4-24, 10-30)	58.89 ± 0.09	83.55 ± 0.2	70.61 ± 0.11	> 100	
			CC[C@H](C)[C@@H]1NC(=O)[C@@H]2CCCN2C(=O)[C@@H]2CCCN2C(=O)[C@H]([C@@H](C)CC)NC(=O)[C@H](CO)NC(=O)[C@H](CCCCN)NC(=O)[C@H]([C@@H](C)O)NC(=O)[C@@H]2CSSC[C@H](NC1=O)C(=O)N[C@@H](Cc1ccc(O)cc1)C(=O)N[C@@H](Cc1c[nH]cn1)C(=O)N[C@@H](CC(C)C)C(=O)N[C@@H](CC(N)=O)C(=O)N[C@@H](CCC(N)=O)C(=O)N1CCC[C@H]1C(=O)N[C@@H](Cc1ccccc1)C(=O)N2 [SFTI-PEDF] (cyclo(CTKSIPPICYHLNQPF); disulfide 1-9)	> 100	> 100	> 100	27.89 ± 0.11	
			CC[C@H](C)[C@@H]1NC(=O)[C@@H]2CSSC[C@@H]3NC(=O)[C@H](Cc4ccccc4)NC(=O)[C@@H]4CCCN4C(=O)[C@H](CCC(N)=O)NC(=O)[C@H](CC(N)=O)NC(=O)[C@H](CC(C)C)NC(=O)[C@H](Cc4c[nH]cn4)NC(=O)[C@H](Cc4ccc(O)cc4)NC(=O)[C@@H]4CSSC[C@H](NC(=O)[C@H](CC(=O)O)NC(=O)[C@H](CO)NC(=O)[C@H](CC(=O)O)NC(=O)[C@H](CCCNC(=N)N)NC(=O)[C@H](CCCNC(=N)N)NC(=O)[C@H](CSSC[C@H](NC1=O)C(=O)N[C@@H](CCCNC(=N)N)C(=O)NCC(=O)N[C@@H](CC(N)=O)C(=O)NCC(=O)N[C@@H](Cc1ccc(O)cc1)C(=O)N4)NC(=O)[C@H](CCCCN)NC(=O)[C@H](CCCCN)NC(=O)[C@H](CC(C)C)NC(=O)[C@H]([C@@H](C)CC)NC(=O)[C@H](CCCCN)NC(=O)[C@@H]1CCCN1C3=O)C(=O)N1CCC[C@H]1C(=O)NCC(=O)N[C@@H](C)C(=O)N2 [MCo-PEDF] (cyclo(ACICRGNGYCYHLNQPFCPKILKKCRRDSDCPG); disulfide 2-18, 4-25, 10-31)	35.22 ± 0.08	39.11 ± 0.07	53.44 ± 0.14	50.16 ± 0.15	
			CC[C@H](C)[C@@H]1NC(=O)[C@@H]2CCCN2C(=O)[C@@H]2CCCN2C(=O)[C@H]([C@@H](C)CC)NC(=O)[C@H](CO)NC(=O)[C@H](CCCCN)NC(=O)[C@H]([C@@H](C)O)NC(=O)[C@@H]2CSSC[C@H](NC1=O)C(=O)N[C@@H](Cc1ccc(O)cc1)C(=O)N[C@H](Cc1c[nH]c3ccccc13)C(=O)N[C@@H](CCCCN)C(=O)N[C@@H](C(C)C)C(=O)N2 [SFTI-SST-01] (cyclo(CTKSIPPICY[dW]KV); disulfide 1-9)	45.38 ± 0.03	> 100	46.07 ± 0.05	18.32 ± 0.05	
